Assay results reported in patent publication US10499642B2, “Isoxazoline-substituted benzamides and analogues as insecticides” (SYNGENTA PARTICIPATIONS AG, priority 2015, dated 2019).
Read-outs that look alike come from different tables or passages of the source.

Key:
Format in all cases: in vivo
[1] = tested on: Myzus persicae; assay: Myzus persicae (green peach aphid) sunflower leaf disc test; conditions: foliar, 144 h
Protocol: Myzus persicae (Green Peach Aphid):
Sunflower leaf discs were placed on agar in a 24-well microtiter plate and sprayed with test solutions at an application rate of 200 ppm. After drying, the leaf discs were infested with an aphid population of mixed ages. After an incubation period of 6 days after treatment, samples were checked for mortality. The following compounds gave at least 80% mortality of Myzus persicae: […]

[2] = tested on: Diabrotica Balteata; assay: Diabrotica balteata (corn root worm) maize sprout test; conditions: 96 h, read-out: effect in at least one of the two categories (mortality or growth inhibition)
Outline: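 Maize sprouts on agar were sprayed with aqueous test solutions made from 10′000 ppm DMSO stocks, dried, then infested with 6 to 10 L2 larvae per well. Mortality and growth inhibition versus untreated samples were assessed 4 days after infestation; application rate 200 ppm.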

[3] = tested on: Spodoptera littoralis; assay: Spodoptera littoralis (Egyptian cotton leaf worm) cotton leaf disc test; conditions: foliar, 72 h, read-out: control (at least one of mortality, anti-feedant effect, and growth inhibition)
Outline: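 Cotton leaf discs on agar were sprayed with aqueous dilutions of 10′000 ppm DMSO stocks, dried and infested with five L1 larvae. Mortality, anti-feedant effect and growth inhibition were scored against untreated samples 3 days after infestation. Control = any of these higher than untreated.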

[4] = tested on: Plutella xylostella; assay: Plutella xylostella (diamond back moth) artificial diet test; conditions: 120 h, read-out: effect in at least one of the two categories (mortality or growth inhibition)
Outline: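 Artificial diet treated with aqueous compound solutions made from DMSO stocks, dried, then infested with L2 larvae (10 to 15 per well). Mortality and growth inhibition scored versus untreated controls 5 days after infestation. Application rate 200 ppm.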

[5] = tested on: Tetranychus urticae; assay: Tetranychus urticae (two-spotted spider mite) bean leaf disc test; conditions: foliar, 192 h
Protocol: Tetranychus urticae (Two-Spotted Spider Mite):
Bean leaf discs on agar in 24-well microtiter plates were sprayed with aqueous test solutions prepared from 10′000 ppm DMSO stock solutions. After drying the leaf discs were infested with a mite population of mixed ages. The samples were assessed for mortality on mixed population (mobile stages) 8 days after infestation.

[6] = tested on: Thrips tabaci; assay: Thrips tabaci (onion thrips) sunflower leaf disc test; conditions: foliar, 144 h
Protocol: Thrips tabaci (Onion Thrips):
Sunflower leaf discs were placed on agar in 24-well microtiter plates and sprayed with aqueous test solutions prepared from 10′000 ppm DMSO stock solutions. After drying the leaf discs were infested with a thrips population of mixed ages. The samples were assessed for mortality 6 days after infestation.

[7] = application rate 200 ppm, sunflower leaf discs, population of mixed ages, 6 days after treatment, read-out: mortality
[8] = application rate 200 ppm, maize sprouts, L2 larvae, 4 days after infestation
[9] = application rate 200 ppm, cotton leaf discs, L1 larvae, 3 days after infestation
[10] = application rate 200 ppm, artificial diet, L2 larvae, 5 days after infestation
[11] = application rate 200 ppm, bean leaf discs, mixed population (mobile stages), 8 days after infestation, read-out: mortality
[12] = application rate 200 ppm, sunflower leaf discs, population of mixed ages, 6 days after infestation, read-out: mortality

CCSC1=NOC(NC(=O)c2ccc(C3=NO[C@@](c4cc(Cl)c(Cl)c(Cl)c4)(C(F)(F)F)C3)cc2C)C1 (stereo partly drawn) [Compound A052]
≥ 80%: mortality at 200 ppm [1] | percent effect (mortality or growth inhibition) at 200 ppm [2] | percent control (mortality, anti-feedant effect or growth inhibition) at 200 ppm [3] | percent effect (mortality or growth inhibition) at 200 ppm [4] | mortality at 200 ppm [5] | mortality at 200 ppm [6]

COC1=NOC(NC(=O)c2ccc(C3=NO[C@@](c4cc(Cl)cc(Cl)c4)(C(F)(F)F)C3)cc2C)C1 (stereo partly drawn) [Compound A054]
≥ 80%: mortality at 200 ppm [1] | percent effect (mortality or growth inhibition) at 200 ppm [2] | percent control (mortality, anti-feedant effect or growth inhibition) at 200 ppm [3] | percent effect (mortality or growth inhibition) at 200 ppm [4] | mortality at 200 ppm [5] | mortality at 200 ppm [6]

Cc1cc(C2=NO[C@@](c3cc(Cl)cc(Cl)c3)(C(F)(F)F)C2)ccc1C(=O)NC1CC(Br)=NO1 (stereo partly drawn) [Compound A055]
≥ 80%: mortality at 200 ppm [1] | percent effect (mortality or growth inhibition) at 200 ppm [2] | percent control (mortality, anti-feedant effect or growth inhibition) at 200 ppm [3] | percent effect (mortality or growth inhibition) at 200 ppm [4] | mortality at 200 ppm [5] | mortality at 200 ppm [6]

Cc1cc(C2=NO[C@@](c3cc(Cl)cc(Cl)c3)(C(F)(F)F)C2)ccc1C(=O)N(C=O)C1CC(Br)=NO1 (stereo partly drawn) [Compound A056, N-(3-bromo-4,5-dihydroisoxazol-5-yl)-4-[(5S)-5-(3,5-dichlorophenyl)-5-(trifluoromethyl)-4H-isoxazol-3-yl]-N-formyl-2-methyl-benzamide]
≥ 80%: mortality at 200 ppm [1] | percent effect (mortality or growth inhibition) at 200 ppm [2] | percent control (mortality, anti-feedant effect or growth inhibition) at 200 ppm [3] | percent effect (mortality or growth inhibition) at 200 ppm [4] | mortality at 200 ppm [5] | mortality at 200 ppm [6]

COC1=NOC(NC(=O)c2ccc(C3=NO[C@@](c4cccc(C(F)(F)F)c4)(C(F)(F)F)C3)cc2C)C1 (stereo partly drawn) [Compound A057]
≥ 80%: mortality at 200 ppm [1, 7] | percent effect (mortality or growth inhibition) at 200 ppm [2, 8] | percent control (mortality, anti-feedant effect or growth inhibition) at 200 ppm [3, 9] | percent effect (mortality or growth inhibition) at 200 ppm [4, 10] | mortality at 200 ppm [5, 11] | mortality at 200 ppm [6, 12]

Cc1cc(C2=NO[C@@](c3cccc(C(F)(F)F)c3)(C(F)(F)F)C2)ccc1C(=O)NC1CC(Br)=NO1 (stereo partly drawn) [Compound A058]
≥ 80%: mortality at 200 ppm [1, 7] | percent effect (mortality or growth inhibition) at 200 ppm [2, 8] | percent control (mortality, anti-feedant effect or growth inhibition) at 200 ppm [3, 9] | percent effect (mortality or growth inhibition) at 200 ppm [4, 10] | mortality at 200 ppm [5, 11] | mortality at 200 ppm [6, 12]

CCOC1=NOC(NC(=O)c2ccc(C3=NO[C@@](c4cc(Cl)c(Cl)c(Cl)c4)(C(F)(F)F)C3)cc2C)C1 (stereo partly drawn) [Compound A059]
≥ 80%: mortality at 200 ppm [1] | percent effect (mortality or growth inhibition) at 200 ppm [2] | percent control (mortality, anti-feedant effect or growth inhibition) at 200 ppm [3] | percent effect (mortality or growth inhibition) at 200 ppm [4] | mortality at 200 ppm [5] | mortality at 200 ppm [6]

CCOC1=NOC(NC(=O)c2ccc(C3=NO[C@@](c4cc(Cl)c(Cl)c(Cl)c4)(C(F)(F)F)C3)cc2Cl)C1 (stereo partly drawn) [Compound A060, 2-chloro-N-(3-ethoxy-4,5-dihydroisoxazol-5-yl)-4-[(5S)-5-(3,4,5-trichlorophenyl)-5-(trifluoromethyl)-4H-isoxazol-3-yl]benzamide]
≥ 80%: mortality at 200 ppm [1] | percent effect (mortality or growth inhibition) at 200 ppm [2] | percent control (mortality, anti-feedant effect or growth inhibition) at 200 ppm [3] | percent effect (mortality or growth inhibition) at 200 ppm [4] | mortality at 200 ppm [5] | mortality at 200 ppm [6]

CCOC1=NOC(NC(=O)c2ccc(C3=NO[C@@](c4cc(Cl)cc(Cl)c4)(C(F)(F)F)C3)cc2C)C1 (stereo partly drawn) [Compound A061, 4-[(5S)-5-(3,5-dichlorophenyl)-5-(trifluoromethyl)-4H-isoxazol-3-yl]-N-(3-ethoxy-4,5-dihydroisoxazol-5-yl)-2-methyl-benzamide]
≥ 80%: mortality at 200 ppm [1] | percent effect (mortality or growth inhibition) at 200 ppm [2] | percent control (mortality, anti-feedant effect or growth inhibition) at 200 ppm [3] | percent effect (mortality or growth inhibition) at 200 ppm [4] | mortality at 200 ppm [5] | mortality at 200 ppm [6]

COC1=NOC(NC(=O)c2ccc(C3=NO[C@@](c4cc(Cl)cc(Cl)c4)(C(F)(F)F)C3)cc2Cl)C1 (stereo partly drawn) [Compound A062]
≥ 80%: mortality at 200 ppm [1] | percent effect (mortality or growth inhibition) at 200 ppm [2] | percent control (mortality, anti-feedant effect or growth inhibition) at 200 ppm [3] | percent effect (mortality or growth inhibition) at 200 ppm [4] | mortality at 200 ppm [5] | mortality at 200 ppm [6]

CCOC1=NOC(NC(=O)c2ccc(C3=NO[C@@](c4cc(Cl)cc(Cl)c4)(C(F)(F)F)C3)cc2Cl)C1 (stereo partly drawn) [Compound A063]
≥ 80%: mortality at 200 ppm [1] | percent effect (mortality or growth inhibition) at 200 ppm [2] | percent control (mortality, anti-feedant effect or growth inhibition) at 200 ppm [3] | percent effect (mortality or growth inhibition) at 200 ppm [4] | mortality at 200 ppm [5] | mortality at 200 ppm [6]

CCOC1=NOC(NC(=O)c2ccc(C3=NO[C@@](c4cc(Cl)c(F)c(Cl)c4)(C(F)(F)F)C3)cc2Cl)C1 (stereo partly drawn) [Compound A064]
≥ 80%: mortality at 200 ppm [1] | percent effect (mortality or growth inhibition) at 200 ppm [2] | percent control (mortality, anti-feedant effect or growth inhibition) at 200 ppm [3] | percent effect (mortality or growth inhibition) at 200 ppm [4] | mortality at 200 ppm [5] | mortality at 200 ppm [6]

COC1=NOC(NC(=O)c2ccc(C3=NO[C@@](c4cc(Cl)cc(C(F)(F)F)c4)(C(F)(F)F)C3)cc2Cl)C1 (stereo partly drawn) [Compound A065]
≥ 80%: mortality at 200 ppm [1] | percent effect (mortality or growth inhibition) at 200 ppm [2] | percent control (mortality, anti-feedant effect or growth inhibition) at 200 ppm [3] | percent effect (mortality or growth inhibition) at 200 ppm [4] | mortality at 200 ppm [5] | mortality at 200 ppm [6]

CCOC1=NOC(NC(=O)c2ccc(C3=NO[C@@](c4cc(Cl)cc(C(F)(F)F)c4)(C(F)(F)F)C3)cc2Cl)C1 (stereo partly drawn) [Compound A066]
≥ 80%: mortality at 200 ppm [1] | percent effect (mortality or growth inhibition) at 200 ppm [2] | percent control (mortality, anti-feedant effect or growth inhibition) at 200 ppm [3] | percent effect (mortality or growth inhibition) at 200 ppm [4] | mortality at 200 ppm [5] | mortality at 200 ppm [6]

CC(=O)OCC1=NOC(NC(=O)c2ccc(C3=NO[C@@](c4cc(Cl)c(F)c(Cl)c4)(C(F)(F)F)C3)cc2C)C1 (stereo partly drawn) [Compound A069]
≥ 80%: mortality at 200 ppm [1] | percent effect (mortality or growth inhibition) at 200 ppm [2] | percent control (mortality, anti-feedant effect or growth inhibition) at 200 ppm [3] | percent effect (mortality or growth inhibition) at 200 ppm [4] | mortality at 200 ppm [5] | mortality at 200 ppm [6]

CCCOC1=NOC(NC(=O)c2ccc(C3=NO[C@@](c4cc(Cl)c(F)c(Cl)c4)(C(F)(F)F)C3)cc2C)C1 (stereo partly drawn) [Compound A070]
≥ 80%: mortality at 200 ppm [1] | percent effect (mortality or growth inhibition) at 200 ppm [2] | percent control (mortality, anti-feedant effect or growth inhibition) at 200 ppm [3] | percent effect (mortality or growth inhibition) at 200 ppm [4] | mortality at 200 ppm [5] | mortality at 200 ppm [6]

Cc1cc(C2=NO[C@@](c3cc(Cl)c(F)c(Cl)c3)(C(F)(F)F)C2)ccc1C(=O)NC1CC(OCC(F)F)=NO1 (stereo partly drawn) [Compound A071]
≥ 80%: mortality at 200 ppm [1] | percent effect (mortality or growth inhibition) at 200 ppm [2] | percent control (mortality, anti-feedant effect or growth inhibition) at 200 ppm [3] | percent effect (mortality or growth inhibition) at 200 ppm [4] | mortality at 200 ppm [5] | mortality at 200 ppm [6]

C=CCOC1=NOC(NC(=O)c2ccc(C3=NO[C@@](c4cc(Cl)c(F)c(Cl)c4)(C(F)(F)F)C3)cc2C)C1 (stereo partly drawn) [Compound A072]
≥ 80%: mortality at 200 ppm [1] | percent effect (mortality or growth inhibition) at 200 ppm [2] | percent control (mortality, anti-feedant effect or growth inhibition) at 200 ppm [3] | percent effect (mortality or growth inhibition) at 200 ppm [4] | mortality at 200 ppm [5] | mortality at 200 ppm [6]
